Measurements published in ChEMBL document CHEMBL4616632, “Discovery of Cyclic Boronic Acid QPX7728, an Ultrabroad-Spectrum Inhibitor of Serine and Metallo-β-lactamases” (J Med Chem, 2020).

Columns and labels:
[1] = Inhibition of recombinant Escherichia coli CTX-M-14 using nitrocefin as substrate preincubated for 10 mins followed by substrate addition measured every 10 secs for 10 mins by spectrophotometrically analysis
[2] = Inhibition of […] OXA-48 using nitrocefin as substrate preincubated for 10 mins followed by substrate addition measured every 10 secs for 10 mins by spectrophotometrically analysis
BlaVIM-1 = BlaVIM-1 (Escherichia coli, UniProt Q8GDC1); experiment: Inhibition of recombinant Escherichia coli VIM-1 using nitrocefin as substrate preincubated for 10 mins followed by substrate addition measured every 10 secs for 10 mins by spectrophotometrically analysis
Escherichia coli [3] = experiment: Inhibition of Escherichia coli EC302 TEM-10 assessed as minimum concentration of compound needed to reduce the MIC of aztreonam to 4 ug/ml
[4] = target: Beta-lactamase (Klebsiella pneumoniae) (UniProt Q93LQ9); experiment: Inhibition of Klebsiella pneumoniae KP1004 KPC-2 assessed as minimum concentration of compound needed to reduce the MIC of aztreonam to 4 ug/ml
Sequence of Beta-lactamase (Klebsiella pneumoniae) (Q93LQ9 as listed by the source): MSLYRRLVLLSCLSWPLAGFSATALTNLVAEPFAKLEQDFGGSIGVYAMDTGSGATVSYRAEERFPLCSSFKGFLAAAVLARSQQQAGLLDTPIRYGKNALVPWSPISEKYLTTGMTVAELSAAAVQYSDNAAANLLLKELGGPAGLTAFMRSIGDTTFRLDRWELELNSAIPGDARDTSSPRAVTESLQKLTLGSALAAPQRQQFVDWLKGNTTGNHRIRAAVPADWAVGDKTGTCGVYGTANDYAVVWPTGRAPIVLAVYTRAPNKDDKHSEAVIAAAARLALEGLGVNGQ

Klebsiella pneumoniae [5] = experiment: Inhibition of Klebsiella pneumoniae KP1160 IMP-26 assessed as minimum concentration of compound needed to reduce the MIC of meropenem to 1 ug/ml
Escherichia coli [6] = experiment: Inhibition of Escherichia coli ECM6619 TEM-10 assessed as minimum concentration of compound needed to reduce the MIC of aztreonam to 4 ug/ml
Plasminogen = Plasminogen (Homo sapiens, UniProt P00747); experiment: Inhibition of mammalian plasmin (unknown origin) using H-D-VLK-pNA as substrate preincubated for 10 mins followed by substrate addition measured after 30 mins
Sequence of Plasminogen (P00747 97-580 limits assumed): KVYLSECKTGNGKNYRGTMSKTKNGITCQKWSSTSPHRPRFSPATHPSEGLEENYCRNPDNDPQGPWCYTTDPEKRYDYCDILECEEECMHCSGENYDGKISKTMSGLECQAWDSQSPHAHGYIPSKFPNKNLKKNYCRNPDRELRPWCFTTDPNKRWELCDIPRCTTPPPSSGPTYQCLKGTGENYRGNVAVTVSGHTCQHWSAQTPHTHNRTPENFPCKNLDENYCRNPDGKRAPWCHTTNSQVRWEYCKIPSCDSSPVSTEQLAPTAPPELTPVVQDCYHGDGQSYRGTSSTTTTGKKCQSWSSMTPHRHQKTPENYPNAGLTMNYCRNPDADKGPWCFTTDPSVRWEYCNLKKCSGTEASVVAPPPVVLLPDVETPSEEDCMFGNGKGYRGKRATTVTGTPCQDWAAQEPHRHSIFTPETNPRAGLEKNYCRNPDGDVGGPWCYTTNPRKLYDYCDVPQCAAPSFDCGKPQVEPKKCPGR
Sequence of Plasminogen (P00747 581-810 limits assumed): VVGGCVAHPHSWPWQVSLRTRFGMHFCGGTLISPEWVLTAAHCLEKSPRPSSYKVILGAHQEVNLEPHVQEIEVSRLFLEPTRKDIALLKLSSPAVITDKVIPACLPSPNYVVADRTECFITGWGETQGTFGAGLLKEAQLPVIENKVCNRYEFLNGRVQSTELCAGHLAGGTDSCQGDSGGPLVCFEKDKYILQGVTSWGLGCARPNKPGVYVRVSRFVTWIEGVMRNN

Dipeptidyl peptidase 9 = Dipeptidyl peptidase 9 (Homo sapiens, UniProt Q86TI2); experiment: Inhibition of mammalian DPP9 (unknown origin) using Lys-Pro-AMC as substrate preincubated for 10 mins followed by substrate addition measured after 30 mins
Sequence of Dipeptidyl peptidase 9 (Q86TI2 whole entry): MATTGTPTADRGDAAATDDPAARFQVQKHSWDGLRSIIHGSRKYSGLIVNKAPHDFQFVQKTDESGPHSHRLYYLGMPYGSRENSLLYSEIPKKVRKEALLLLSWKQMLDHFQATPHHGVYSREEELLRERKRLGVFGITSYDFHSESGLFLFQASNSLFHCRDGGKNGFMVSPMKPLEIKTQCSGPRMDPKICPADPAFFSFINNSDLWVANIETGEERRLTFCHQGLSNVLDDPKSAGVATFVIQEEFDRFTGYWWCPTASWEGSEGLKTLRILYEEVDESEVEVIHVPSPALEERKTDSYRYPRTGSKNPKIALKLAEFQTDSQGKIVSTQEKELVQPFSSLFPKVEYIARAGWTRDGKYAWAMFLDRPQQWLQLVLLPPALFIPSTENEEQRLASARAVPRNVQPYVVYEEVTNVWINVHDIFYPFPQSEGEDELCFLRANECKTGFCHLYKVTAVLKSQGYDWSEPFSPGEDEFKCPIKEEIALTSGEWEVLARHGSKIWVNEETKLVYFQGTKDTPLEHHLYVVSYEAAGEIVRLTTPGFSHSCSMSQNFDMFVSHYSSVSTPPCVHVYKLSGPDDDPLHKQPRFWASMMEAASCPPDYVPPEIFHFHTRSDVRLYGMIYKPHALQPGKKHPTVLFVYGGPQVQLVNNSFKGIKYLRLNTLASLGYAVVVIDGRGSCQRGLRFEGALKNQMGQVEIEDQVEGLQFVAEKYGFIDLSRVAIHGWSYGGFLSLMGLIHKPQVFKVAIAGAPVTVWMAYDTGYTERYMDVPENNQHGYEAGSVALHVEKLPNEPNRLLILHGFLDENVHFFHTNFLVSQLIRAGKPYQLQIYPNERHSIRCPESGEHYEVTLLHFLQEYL

[7] = target: Endothelin-converting enzyme 1 (Homo sapiens, UniProt P42892); experiment: Inhibition of mammalian ECE-1 (unknown origin) using MCA-RPPGFSAFK(DNP)-OH as substrate preincubated for 10 mins followed by substrate addition measured after 30 mins
Sequence of Endothelin-converting enzyme 1 (P42892 whole entry): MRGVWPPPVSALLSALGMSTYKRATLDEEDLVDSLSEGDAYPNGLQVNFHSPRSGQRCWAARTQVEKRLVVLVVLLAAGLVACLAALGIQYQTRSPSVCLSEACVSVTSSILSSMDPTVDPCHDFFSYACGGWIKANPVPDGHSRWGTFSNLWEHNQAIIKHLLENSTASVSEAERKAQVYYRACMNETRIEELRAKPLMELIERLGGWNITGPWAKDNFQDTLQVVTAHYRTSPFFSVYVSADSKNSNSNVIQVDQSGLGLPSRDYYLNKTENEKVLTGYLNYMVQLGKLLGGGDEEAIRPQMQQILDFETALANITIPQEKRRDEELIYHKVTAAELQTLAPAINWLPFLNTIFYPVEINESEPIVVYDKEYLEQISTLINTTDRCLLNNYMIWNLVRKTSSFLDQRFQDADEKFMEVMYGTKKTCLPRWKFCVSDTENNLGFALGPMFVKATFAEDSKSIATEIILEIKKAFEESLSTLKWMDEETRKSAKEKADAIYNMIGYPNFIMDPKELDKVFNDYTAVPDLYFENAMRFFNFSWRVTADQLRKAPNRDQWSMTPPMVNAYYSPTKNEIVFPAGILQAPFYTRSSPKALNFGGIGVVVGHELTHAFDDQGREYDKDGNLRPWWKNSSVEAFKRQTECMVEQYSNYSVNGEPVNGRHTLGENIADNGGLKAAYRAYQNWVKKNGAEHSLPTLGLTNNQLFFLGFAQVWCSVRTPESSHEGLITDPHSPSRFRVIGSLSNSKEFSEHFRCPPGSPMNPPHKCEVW

Interstitial collagenase = Interstitial collagenase (Homo sapiens, UniProt P03956); experiment: Inhibition of mammalian MMP-1 (unknown origin) using McaPLGLDpaAR-NH2 as substrate preincubated for 10 mins followed by substrate addition measured after 30 mins
Sequence of Interstitial collagenase (P03956 whole entry, the tested form may be a part): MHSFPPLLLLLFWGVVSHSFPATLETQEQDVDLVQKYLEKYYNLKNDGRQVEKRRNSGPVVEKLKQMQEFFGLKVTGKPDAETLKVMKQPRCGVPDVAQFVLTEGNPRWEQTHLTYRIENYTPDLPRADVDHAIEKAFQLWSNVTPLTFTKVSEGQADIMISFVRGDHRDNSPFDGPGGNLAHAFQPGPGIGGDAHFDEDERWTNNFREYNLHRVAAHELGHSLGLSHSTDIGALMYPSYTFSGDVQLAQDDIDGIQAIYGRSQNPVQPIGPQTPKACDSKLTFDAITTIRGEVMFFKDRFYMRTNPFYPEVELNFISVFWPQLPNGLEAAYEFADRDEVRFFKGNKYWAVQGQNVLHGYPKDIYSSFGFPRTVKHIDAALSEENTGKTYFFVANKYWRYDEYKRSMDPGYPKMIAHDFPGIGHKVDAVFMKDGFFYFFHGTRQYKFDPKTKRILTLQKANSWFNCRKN

[8] = AUC in rat at 10 mg/kg, iv administered as infusion for 0.5 hrs by HPLC/MS analysis; type: ADME, organism-based; settings: in vivo
[9] = Clearance in rat at 10 mg/kg, iv administered as infusion for 0.5 hrs by HPLC/MS analysis; type: ADME, organism-based; settings: in vivo
[10] = Clearance in rat at 30 mg/kg, po administered via gavage by HPLC/MS analysis; type: ADME, organism-based; settings: in vivo
[11] = Cmax in rat at 300 mg/kg, iv administered as infusion for 0.5 hrs by HPLC/MS analysis; type: ADME, organism-based; design: dose 300 mg/kg, route intravenous; settings: in vivo
[12] = Cmax in rat at 30 mg/kg, po administered via gavage by HPLC/MS analysis; type: ADME, organism-based; design: dose 30 mg/kg, route oral; settings: in vivo
[13] = Cmax in rat at 100 mg/kg, po administered via gavage by HPLC/MS analysis; type: ADME, organism-based; design: dose 100 mg/kg, route oral; settings: in vivo
[14] = Cmax in rat at 1000 mg/kg, po administered via gavage by HPLC/MS analysis; type: ADME, organism-based; design: dose 1000 mg/kg, route oral; settings: in vivo
[15] = Half life in rat at 1000 mg/kg, po administered via gavage by HPLC/MS analysis; type: ADME, organism-based; settings: in vivo
[16] = Oral bioavailability in rat at 1000 mg/kg administered via gavage by HPLC/MS analysis; type: ADME, organism-based; settings: in vivo
[17] = Protein binding in rat plasma; type: ADME, cell-free; settings: read-out: PPB (converted)
[18] = Oral bioavailability in rat at 30 mg/kg in fasted state by HPLC/MS analysis; type: ADME, organism-based; settings: in vivo
[19] = Oral bioavailability in rat at 100 mg/kg in fasted condition by HPLC/MS analysis; type: ADME, organism-based; settings: in vivo
Klebsiella pneumoniae [20] = experiment: (§1) Potentiation of meropenem-induced bacteriostatic activity against carbapenem-resistant Klebsiella pneumoniae KP1244 harboring KPC-3, SHV-11, and SHV-12 infected in Swiss-Webster mouse model of neutropenic thigh infection assessed as log change in bacterial count in thigh at 10 mg/kg, ip administered at 2 hrs interval for 24 hrs starting from 2 hr post infection and measured post last dose (reference value: 0.62 log10CFU); type: functional
Klebsiella pneumoniae [21] = experiment: as §1, with “at 25” for “at 10”; type: functional
[22] = Protein binding in human plasma; type: ADME, cell-free; settings: read-out: PPB (converted)
[23] = Toxicity in rat at 30 to 1000 mg/kg, po administered via gavage; type: organism-based; settings: in vivo
[24] = Toxicity in rat assessed as histological changes in tissue at 30 to 300 mg/kg, iv administered daily via infusion for 7 days; type: organism-based; settings: in vivo, 168 h
Klebsiella pneumoniae [25] = experiment: Potentiation of cefepime-induced antibacterial activity against carbapenem-resistant Klebsiella pneumoniae assessed as cefepime MIC50 at 8 ug/ml by broth microdilution method (reference value: 32 ug/ml); type: functional
Enterobacteriaceae [26] = experiment: Inhibition of OXA-48 in carbapenem-resistant Enterobacteriaceae assessed as potentiation of cefepime-induced antibacterial activity by measuring cefepime MIC50 at 8 ug/ml by broth microdilution method (Rvb > 32 ug/ml)
Enterobacterales [27] = experiment: Potentiation of cefepime-induced antibacterial activity against Enterobacterales assessed as cefepime MIC90 at 8 ug/ml by broth microdilution method (Rvb > 32 ug/ml); type: functional
Enterobacteriaceae [28] = experiment: Potentiation of cefepime-induced antibacterial activity against carbapenem-resistant Enterobacteriaceae assessed as cefepime MIC90 at 8 ug/ml by broth microdilution method (Rvb > 32 ug/ml); type: functional
Klebsiella pneumoniae [29] = experiment: Potentiation of ceftolozane-induced antibacterial activity against carbapenem-resistant Klebsiella pneumoniae assessed as ceftolozane MIC50 at 8 ug/ml by broth microdilution method (Rvb > 32 ug/ml); type: functional
Enterobacterales [30] = experiment: Potentiation of ceftolozane-induced antibacterial activity against Enterobacterales assessed as ceftolozane MIC90 at 8 ug/ml by broth microdilution method (Rvb > 32 ug/ml); type: functional
Klebsiella pneumoniae [31] = experiment: Potentiation of ceftolozane-induced antibacterial activity against carbapenem-resistant Klebsiella pneumoniae assessed as ceftolozane MIC90 at 8 ug/ml by broth microdilution method (Rvb > 32 ug/ml); type: functional
Acinetobacter baumannii [32] = experiment: Potentiation of ceftolozane-induced antibacterial activity against carbapenem-resistant Acinetobacter baumannii assessed as ceftolozane MIC90 at 8 ug/ml by broth microdilution method (Rvb > 32 ug/ml); type: functional
Enterobacterales [33] = experiment: Potentiation of meropenem-induced antibacterial activity against Enterobacterales assessed as meropenem MIC50 at 8 ug/ml by broth microdilution method (reference value: 1 ug/ml); type: functional
Enterobacteriaceae [34] = experiment: Inhibition of OXA-48 in carbapenem-resistant Enterobacteriaceae assessed as potentiation of meropenem-induced antibacterial activity by measuring meropenem MIC90 at 8 ug/ml by broth microdilution method (Rvb > 32 ug/ml)
Acinetobacter baumannii [35] = experiment: Potentiation of meropenem-induced antibacterial activity against carbapenem-resistant Acinetobacter baumannii assessed as meropenem MIC90 at 8 ug/ml by broth microdilution method (Rvb > 32 ug/ml); type: functional

With `O=C(O)c1c(F)ccc2c1OB(O)[C@@H]1C[C@H]21` [XERUBORBACTAM] the Ki [1] was 0.00029 µM, the Ki [2] was 0.00028 µM and the Ki (BlaVIM-1) was 0.008 µM. For the same molecule, the MEC (Escherichia coli [3]) was 0.16 µg/mL, the MEC [4] was 0.3 µg/mL and the MEC (Klebsiella pneumoniae [5]) was 2.5 µg/mL. For the same molecule, the MEC (Escherichia coli [6]) was 0.16 µg/mL, the IC50 (Plasminogen) was > 1000 µM and the IC50 (Dipeptidyl peptidase 9) was > 1000 µM. For the same molecule, the IC50 [7] was 431 µM, the IC50 (Interstitial collagenase) was > 1000 µM and the AUC at 0.5 h [8] was 35200 ng·h/mL. It also gave a clearance [9] of 4.83 mL/min/kg, a CL/F [10] of 15.2 mL/min/kg and a Cmax [11] of 544 µg/mL. It also gave a Cmax [12] of 8.6 µg/mL, a Cmax [13] of 28.8 µg/mL and a Cmax [14] of 90.4 µg/mL. For the same molecule, the half-life [15] was 4 h, the bioavailability [16] was 24.3% and the fraction unbound [17] was 0.15. It also gave a bioavailability [18] of 43%, a bioavailability [19] of 53% and an Activity (Klebsiella pneumoniae [20]) of -1.66 log10CFU. The Activity (Klebsiella pneumoniae [21]) was -1.15 log10CFU, the fraction unbound [22] was 0.04 and the Activity [23] was “Non-Toxic”. For the same molecule, the Activity [24] was “Toxic”, the MIC50 (Klebsiella pneumoniae [25]) was ≤ 0.06 µg/mL and the MIC50 (Enterobacteriaceae [26]) was 0.125 µg/mL. It also gave an MIC90 (Enterobacterales [27]) of 0.25 µg/mL, an MIC90 (Enterobacteriaceae [28]) of 0.5 µg/mL and an MIC50 (Klebsiella pneumoniae [29]) of 0.125 µg/mL. The MIC90 (Enterobacterales [30]) was 8 µg/mL, the MIC90 (Klebsiella pneumoniae [31]) was 0.5 µg/mL and the MIC90 (Acinetobacter baumannii [32]) was 32 µg/mL. For the same molecule, the MIC50 (Enterobacterales [33]) was ≤ 0.015 µg/mL, the MIC90 (Enterobacteriaceae [34]) was 0.125 µg/mL and the MIC90 (Acinetobacter baumannii [35]) was 4 µg/mL.
